Source: PubChem BioAssay (NCI)
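Assay format: 96-well plates, 48-hour exposure. GI50 marks 50% less growth. TGI: concentration producing complete growth inhibition.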

Columns and labels:
Assay in all cases: NCI tumour cell line growth inhibition, 48 h; in the data active = GI50 below about 0.43 µM; inactive = the rest
CAKI-1 renal = test system: CAKI-1 renal
HCT-116 colon = test system: HCT-116 colon
T-47D breast = test system: T-47D breast
RPMI-8226 leukemia = test system: RPMI-8226 leukemia
BT-549 breast = test system: BT-549 breast
SF-295 CNS = test system: SF-295 CNS
NCI/ADR-RES ovarian = test system: NCI/ADR-RES ovarian
A498 renal = test system: A498 renal
NCI-H23 lung = test system: NCI-H23 lung
OVCAR-4 ovarian = test system: OVCAR-4 ovarian
SR leukemia = test system: SR leukemia
TK-10 renal = test system: TK-10 renal
LOX IMVI melanoma = test system: LOX IMVI melanoma
MDA-MB-231 breast = test system: MDA-MB-231 breast
IGROV1 ovarian = test system: IGROV1 ovarian
OVCAR-5 ovarian = test system: OVCAR-5 ovarian
RXF 393 renal = test system: RXF 393 renal
UO-31 renal = test system: UO-31 renal
SN12C renal = test system: SN12C renal
OVCAR-8 ovarian = test system: OVCAR-8 ovarian
SW-620 colon = test system: SW-620 colon
SNB-19 CNS = test system: SNB-19 CNS
SK-MEL-5 melanoma = test system: SK-MEL-5 melanoma
A549 NSCLC = test system: A549 NSCLC
CCRF-CEM leukemia = test system: CCRF-CEM leukemia
U251 CNS = test system: U251 CNS
HCC-2998 colon = test system: HCC-2998 colon
ACHN renal = test system: ACHN renal
HL-60(TB) leukemia = test system: HL-60(TB) leukemia
PC-3 prostate = test system: PC-3 prostate
SNB-75 CNS = test system: SNB-75 CNS
MCF7 breast = test system: MCF7 breast
HS 578T breast = test system: HS 578T breast
K-562 leukemia = test system: K-562 leukemia
HOP-62 NSCLC = test system: HOP-62 NSCLC
UACC-62 melanoma = test system: UACC-62 melanoma
NCI-H460 lung = test system: NCI-H460 lung
HOP-92 NSCLC = test system: HOP-92 NSCLC
MOLT-4 leukemia = test system: MOLT-4 leukemia
NCI-H522 lung = test system: NCI-H522 lung
SF-268 CNS = test system: SF-268 CNS
COLO 205 colon = test system: COLO 205 colon
DU-145 prostate = test system: DU-145 prostate
SK-MEL-2 melanoma = test system: SK-MEL-2 melanoma
OVCAR-3 ovarian = test system: OVCAR-3 ovarian
786-0 renal = test system: 786-0 renal
SF-539 CNS = test system: SF-539 CNS
KM12 colon = test system: KM12 colon
UACC-257 melanoma = test system: UACC-257 melanoma
HCT-15 colon = test system: HCT-15 colon
SK-MEL-28 melanoma = test system: SK-MEL-28 melanoma
SK-OV-3 ovarian = test system: SK-OV-3 ovarian
HT29 colon = test system: HT29 colon
NCI-H226 lung = test system: NCI-H226 lung
M14 melanoma = test system: M14 melanoma
MDA-MB-435 = test system: MDA-MB-435
MALME-3M melanoma = test system: MALME-3M melanoma
EKVX NSCLC = test system: EKVX NSCLC

CC(=O)O[C@H]1C(=O)[C@@]2(C)C([C@H](OC(=O)c3ccccc3)[C@]3(O)C[C@H](OC(=O)[C@H](O)[C@@H](NC(=O)c4ccccc4)c4ccccc4)C(C)=C1C3(C)C)[C@]1(OC(C)=O)CO[C@@H]1C[C@@H]2O (stereo partly drawn)
0.0246 µM: TGI (COLO 205 colon)
0.0146 µM: TGI (NCI-H522 lung)
0.0186 µM: TGI (SNB-75 CNS)
0.0589 µM: TGI (OVCAR-3 ovarian)
41.9 µM: TGI (NCI/ADR-RES ovarian)
0.0209 µM: TGI (HL-60(TB) leukemia)
> 37.2 µM: TGI (MOLT-4 leukemia)
inactive: GI50 (NCI/ADR-RES ovarian) 1.81 µM | GI50 (UO-31 renal) 1.41 µM | GI50 (ACHN renal) 0.945 µM | GI50 (UACC-257 melanoma) > 50 µM
0.0382 µM: TGI (RXF 393 renal)
> 50 µM: TGI (CAKI-1 renal) | TGI (HCT-116 colon) | TGI (T-47D breast) | TGI (RPMI-8226 leukemia) | TGI (BT-549 breast) | TGI (SF-295 CNS) | TGI (A498 renal) | TGI (NCI-H23 lung) | TGI (OVCAR-4 ovarian) | TGI (SR leukemia) | TGI (TK-10 renal) | TGI (LOX IMVI melanoma) | TGI (MDA-MB-231 breast) | TGI (IGROV1 ovarian) | TGI (OVCAR-5 ovarian) | TGI (UO-31 renal) | TGI (SN12C renal) | TGI (OVCAR-8 ovarian) | TGI (SW-620 colon) | TGI (SNB-19 CNS) | TGI (SK-MEL-5 melanoma) | TGI (A549 NSCLC) | TGI (CCRF-CEM leukemia) | TGI (U251 CNS) | TGI (ACHN renal) | TGI (PC-3 prostate) | TGI (MCF7 breast) | TGI (HS 578T breast) | TGI (K-562 leukemia) | TGI (HOP-62 NSCLC) | TGI (UACC-62 melanoma) | TGI (NCI-H460 lung) | TGI (HOP-92 NSCLC) | TGI (SF-268 CNS) | TGI (SK-MEL-2 melanoma) | TGI (786-0 renal) | TGI (SF-539 CNS) | TGI (KM12 colon) | TGI (UACC-257 melanoma) | TGI (HCT-15 colon) | TGI (SK-MEL-28 melanoma) | TGI (SK-OV-3 ovarian) | TGI (NCI-H226 lung)
0.0272 µM: TGI (DU-145 prostate)
active: GI50 (HCT-116 colon) < 0.005 µM | GI50 (T-47D breast) 0.00973 µM | GI50 (RPMI-8226 leukemia) < 0.005 µM | GI50 (BT-549 breast) 0.0212 µM | GI50 (SF-295 CNS) 0.0173 µM | GI50 (A498 renal) 0.0161 µM | GI50 (NCI-H23 lung) 0.0125 µM | GI50 (OVCAR-4 ovarian) 0.198 µM | GI50 (SR leukemia) < 0.005 µM | GI50 (LOX IMVI melanoma) 0.00513 µM | GI50 (MDA-MB-231 breast) 0.0343 µM | GI50 (IGROV1 ovarian) 0.41 µM | GI50 (OVCAR-5 ovarian) 0.0226 µM | GI50 (RXF 393 renal) 0.00516 µM | GI50 (SN12C renal) 0.0142 µM | GI50 (OVCAR-8 ovarian) 0.00804 µM | GI50 (SW-620 colon) < 0.005 µM | GI50 (SNB-19 CNS) 0.0135 µM | GI50 (SK-MEL-5 melanoma) 0.00785 µM | GI50 (A549 NSCLC) < 0.005 µM | GI50 (CCRF-CEM leukemia) 0.0141 µM | GI50 (U251 CNS) 0.0111 µM | GI50 (HCC-2998 colon) 0.00868 µM | GI50 (HL-60(TB) leukemia) 0.00528 µM | GI50 (PC-3 prostate) 0.0129 µM | GI50 (SNB-75 CNS) < 0.005 µM | GI50 (MCF7 breast) < 0.005 µM | GI50 (K-562 leukemia) 0.00596 µM | GI50 (UACC-62 melanoma) 0.0207 µM | GI50 (NCI-H460 lung) < 0.005 µM | GI50 (HOP-92 NSCLC) 0.054 µM | GI50 (MOLT-4 leukemia) 0.0152 µM | GI50 (SF-268 CNS) 0.021 µM | GI50 (COLO 205 colon) < 0.005 µM | GI50 (DU-145 prostate) 0.00673 µM | GI50 (SK-MEL-2 melanoma) 0.0149 µM | GI50 (OVCAR-3 ovarian) 0.0056 µM | GI50 (786-0 renal) 0.0465 µM | GI50 (SF-539 CNS) 0.00872 µM | GI50 (KM12 colon) < 0.005 µM | GI50 (HCT-15 colon) 0.382 µM | GI50 (SK-MEL-28 melanoma) 0.0139 µM | GI50 (HT29 colon) < 0.005 µM | GI50 (NCI-H226 lung) 0.0189 µM

Nc1ncnc2c1N=C(c1ccc3c(c1)OCO3)CC(c1ccc(Cl)cc1)N2 (stereo not drawn)
35.2 µM: TGI (OVCAR-4 ovarian)
42.6 µM: TGI (HOP-62 NSCLC)
25.8 µM: TGI (U251 CNS)
active: GI50 (IGROV1 ovarian) 0.351 µM
30.7 µM: TGI (KM12 colon)
90.7 µM: TGI (OVCAR-5 ovarian)
38.9 µM: TGI (TK-10 renal)
41.2 µM: TGI (NCI/ADR-RES ovarian)
> 100 µM: TGI (T-47D breast) | TGI (SF-295 CNS) | TGI (A498 renal) | TGI (NCI-H23 lung) | TGI (SR leukemia) | TGI (MDA-MB-231 breast) | TGI (UO-31 renal) | TGI (SN12C renal) | TGI (SW-620 colon) | TGI (SNB-19 CNS) | TGI (SK-MEL-5 melanoma) | TGI (ACHN renal) | TGI (HL-60(TB) leukemia) | TGI (K-562 leukemia) | TGI (M14 melanoma) | TGI (MDA-MB-435) | TGI (UACC-62 melanoma) | TGI (NCI-H460 lung) | TGI (MOLT-4 leukemia) | TGI (NCI-H522 lung) | TGI (COLO 205 colon) | TGI (786-0 renal) | TGI (MALME-3M melanoma) | TGI (SF-539 CNS) | TGI (EKVX NSCLC) | TGI (UACC-257 melanoma) | TGI (HCT-15 colon) | TGI (SK-MEL-28 melanoma) | TGI (SK-OV-3 ovarian) | TGI (HT29 colon) | TGI (NCI-H226 lung)
18.6 µM: TGI (OVCAR-3 ovarian)
45.5 µM: TGI (MCF7 breast)
33.3 µM: TGI (DU-145 prostate)
22.1 µM: TGI (PC-3 prostate)
25.1 µM: TGI (OVCAR-8 ovarian)
45.9 µM: TGI (SF-268 CNS)
86.3 µM: TGI (CAKI-1 renal)
38.3 µM: TGI (SNB-75 CNS)
8.33 µM: TGI (RPMI-8226 leukemia)
35 µM: TGI (HCC-2998 colon)
13.5 µM: TGI (RXF 393 renal)
7.09 µM: TGI (HS 578T breast)
inactive: GI50 (CAKI-1 renal) 22.7 µM | GI50 (HCT-116 colon) 10.7 µM | GI50 (T-47D breast) 20.9 µM | GI50 (RPMI-8226 leukemia) 1.5 µM | GI50 (SF-295 CNS) 14.7 µM | GI50 (NCI/ADR-RES ovarian) 5.35 µM | GI50 (A498 renal) 5.93 µM | GI50 (NCI-H23 lung) 21.4 µM | GI50 (OVCAR-4 ovarian) 4.58 µM | GI50 (SR leukemia) > 100 µM | GI50 (TK-10 renal) 8.22 µM | GI50 (LOX IMVI melanoma) 10.1 µM | GI50 (MDA-MB-231 breast) 27 µM | GI50 (OVCAR-5 ovarian) 18.3 µM | GI50 (RXF 393 renal) 2.51 µM | GI50 (UO-31 renal) 7.47 µM | GI50 (SN12C renal) 80.4 µM | GI50 (OVCAR-8 ovarian) 4.66 µM | GI50 (SW-620 colon) 4.91 µM | GI50 (SNB-19 CNS) > 100 µM | GI50 (SK-MEL-5 melanoma) 85.1 µM | GI50 (A549 NSCLC) 11.6 µM | GI50 (U251 CNS) 6.19 µM | GI50 (HCC-2998 colon) 5.88 µM | GI50 (ACHN renal) 8.25 µM | GI50 (HL-60(TB) leukemia) 5.38 µM | GI50 (PC-3 prostate) 9.06 µM | GI50 (SNB-75 CNS) 5.22 µM | GI50 (MCF7 breast) 3.61 µM | GI50 (HS 578T breast) 1.07 µM | GI50 (K-562 leukemia) 4.27 µM | GI50 (M14 melanoma) 25.5 µM | GI50 (HOP-62 NSCLC) 16.6 µM | GI50 (MDA-MB-435) 56.3 µM | GI50 (UACC-62 melanoma) 72.1 µM | GI50 (NCI-H460 lung) 21.8 µM | GI50 (MOLT-4 leukemia) 5.85 µM | GI50 (NCI-H522 lung) 2.37 µM | GI50 (SF-268 CNS) 8.52 µM | GI50 (COLO 205 colon) 15 µM | GI50 (DU-145 prostate) 16.8 µM | GI50 (OVCAR-3 ovarian) 3.71 µM | GI50 (786-0 renal) 21.7 µM | GI50 (MALME-3M melanoma) 89.1 µM | GI50 (SF-539 CNS) 26.2 µM | GI50 (KM12 colon) 2.03 µM | GI50 (EKVX NSCLC) 40.6 µM | GI50 (UACC-257 melanoma) > 100 µM | GI50 (HCT-15 colon) 3.05 µM | GI50 (SK-MEL-28 melanoma) 30.4 µM | GI50 (SK-OV-3 ovarian) 92.6 µM | GI50 (HT29 colon) 17.2 µM | GI50 (NCI-H226 lung) 44.8 µM
30.1 µM: TGI (A549 NSCLC)
22.5 µM: TGI (HCT-116 colon)
33 µM: TGI (LOX IMVI melanoma)
3.76 µM: TGI (IGROV1 ovarian)
